Experimental findings from US12012404B2, “Pyrimidoheterocyclic compounds and application thereof” (D3 BIO (WUXI) CO., LTD., priority 2020, dated 2024) are described below.

The term IC50 denotes the midpoint of a concentration-inhibition curve. A lower IC50 goes with higher potency.

Data set [1] has as its system KRAS^G12C-mutated H358 cells. Description: H358 cell assay: inhibition of proliferation (CellTiter-Glo, 5 days). The data set is classed as cell-based. The settings on record: Homo sapiens, 120 h; NCI-H358 cells, 5 days incubation. The protocol: Compounds were assayed for IC50 of inhibition of proliferation of KRAS^G12C-mutated H358 cells.
The main instrument used in this assay was a Nivo multi-label analyzer (PerkinElmer).
2.4 Method of the Assay: • 1) NCI-H358 cells were inoculated in a white 96-well plate, and each well contained 80 μL of cell suspension and 4000 NCI-H358 cells. […] The assay was carried out in duplicate. 78 μL of medium was added to the intermediate plate, and then 2 μL of the serially diluted compound was transferred to each well of the intermediate plate according to the corresponding position. After mixing well, 20 μL per well was transferred to the cell plate. […] The cell plate was incubated in a carbon dioxide incubator for 5 days. Another cell plate was prepared, and the signal value of the cell plate was read on the day of compound addition as the maximum value (Max value in the equation below) to participate in data analysis. 25 μL of cell viability chemiluminescence detection reagent was added to each well of the cell plate, and the plate was incubated at room temperature for 10 minutes to stabilize the luminescence signal. A multi-label analyzer was used for reading the plate. • 3) […]
Background: ATP-based viability assays read luminescence as a measure of living cells.

Data set [2] can be described thus: Protein binding rate by equilibrium dialysis, SD rats plasma. The settings on record: rat, plasma; SD rats, as listed in PK Table 8; read-out: Plasma protein unbound rate PPB (Unbound %). The data set is classed as in vitro ADME. The protocol:
Purpose of the assay: Protein binding rate of the assay compounds in plasma of CD-1 mice, SD rats, beagle dogs, cynomolgus monkeys and human was determined by equilibrium dialysis.
Procedure of the assay: Plasma samples with a compound concentration of 2 μM were prepared using plasma of the above five species, placed in a 96-well equilibrium dialysis device, and dialyzed with phosphate buffer solution at 37±1° C. for 4 hours. Warfarin was used as the control compound in this assay. The concentrations of the assay compounds in plasma and dialysis buffer were determined by LC-MS/MS method.

For `C=C(F)C(=O)N1CCN(c2nc(OC[C@@]34CCCN3C[C@H](F)C4)nc3c2COC(c2c(F)c(N)cc(C)c2C(F)(F)F)C3)C[C@@H]1CC#N` (some centres unmarked) [Compound 17], it took 0.6 nM to reach half-maximal inhibition in data set [1] (IC50). Also, in data set [2], the fraction unbound at 4 h, 2 μM came out at 0.048.
